Test results as given in PubChem BioAssay (NCI).
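Where inhibition never reached the appropriate level, the endpoint shown equals the highest concentration tested. Otherwise, values were interpolated linearly from a five-concentration, 48-hour dose response in 96-well plates. Here, GI50 denotes the concentration required for 50% inhibition of growth. TGI marks complete inhibition of growth.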

What was measured:
Assay in all cases: growth of human tumour cells (NCI), 48 h
ACHN renal = system: ACHN renal
CCRF-CEM leukemia = system: CCRF-CEM leukemia
HCT-116 colon = system: HCT-116 colon
HL-60(TB) leukemia = system: HL-60(TB) leukemia
HT29 colon = system: HT29 colon
NCI-H460 lung = system: NCI-H460 lung
RPMI-8226 leukemia = system: RPMI-8226 leukemia
RXF 393 renal = system: RXF 393 renal
SF-295 CNS = system: SF-295 CNS
SF-539 CNS = system: SF-539 CNS

SMILES | GI50 (ACHN renal) | TGI (ACHN renal) | GI50 (CCRF-CEM leukemia) | TGI (CCRF-CEM leukemia) | GI50 (HCT-116 colon) | TGI (HCT-116 colon) | GI50 (HL-60(TB) leukemia) | TGI (HL-60(TB) leukemia) | GI50 (HT29 colon) | TGI (HT29 colon) | GI50 (NCI-H460 lung) | TGI (NCI-H460 lung) | GI50 (RPMI-8226 leukemia) | TGI (RPMI-8226 leukemia) | GI50 (RXF 393 renal) | TGI (RXF 393 renal) | GI50 (SF-295 CNS) | TGI (SF-295 CNS) | GI50 (SF-539 CNS) | TGI (SF-539 CNS)
CCC(CO)Nc1nc2ccc(Cl)cc2c2ccccc12 (centres undefined) | 9.05 µM | 21.1 µM | 4.24 µM | 17.4 µM | 10.8 µM | 22.7 µM | 7.62 µM | 63.3 µM | 4.58 µM | 15.6 µM | 3.93 µM | 14.8 µM | 4.04 µM | 26.4 µM | 2.3 µM | 5.93 µM | 2.81 µM | 15.3 µM | 10.4 µM | 22.2 µM
O=C1C(=O)N(c2ccc(Cl)cc2Cl)C(=O)C(=O)C1c1nc2ccccc2s1 |  | > 100 µM |  | 88.9 µM |  | > 100 µM |  | 67.1 µM |  | > 100 µM |  | > 100 µM |  | > 100 µM |  | > 100 µM |  | > 100 µM |  | > 100 µM
COc1ccc2c(c1)/C(=C/c1c(C)nc3sc(C)nn13)C(=O)N2 | 6.53 µM | > 100 µM | 2.52 µM | > 100 µM | 1.77 µM | > 100 µM | 0.663 µM |  | 0.451 µM | > 100 µM | 1.09 µM | > 32.6 µM | 4.17 µM | > 100 µM | 17.6 µM | > 100 µM | 1.48 µM | 50.3 µM | 3.29 µM | > 50.7 µM
CSc1nc2c(c(=O)[nH]1)N=C1c3ccccc3C(=O)C1C(c1ccccc1)N2 (centres undefined) | 3.73 µM | > 100 µM | 6.92 µM | > 100 µM | 4.21 µM | > 100 µM | 2.51 µM | > 100 µM | 2.97 µM | > 100 µM | 3.16 µM | 38.1 µM | 3.01 µM | > 100 µM | 22 µM | > 100 µM | 1.91 µM | > 100 µM | 2.84 µM | 17.9 µM
CCCCC(=O)OCC(=O)[C@]1(O)Cc2c(O)c3c(c(O)c2[C@@H](OC2CC(NC(=O)C(F)(F)F)C(O)C(C)O2)C1)C(=O)c1c(OC)cccc1C3=O (some centres undefined) |  | 3.04 µM |  | > 73.6 µM |  | 2.91 µM |  | 6.41 µM |  | > 100 µM |  | 2.48 µM |  | 32.7 µM |  | 2.62 µM |  | 2.19 µM |  | 2.98 µM
COC1CCC2C(NS(=O)(=O)c3ccc(C)cc3)CCCC2O1 (centres undefined) (tested in a mixture with another compound) |  | > 34.5 µM |  | > 34.5 µM |  | 15.8 µM |  | 18.5 µM |  | > 34.5 µM |  | > 34.5 µM |  | 14.7 µM |  | > 34.5 µM |  | 21.4 µM |  | > 34.5 µM
O=C(O)CCc1coc2ccc(O)cc12 |  | > 100 µM |  | > 100 µM |  | > 100 µM |  | > 100 µM |  | > 100 µM |  | > 100 µM |  | > 100 µM |  | > 100 µM |  | > 100 µM |  | > 100 µM
O=C(CC1(O)C(=O)Nc2c(Cl)cc(Cl)cc21)c1ccc(Br)cc1Br (centres undefined) |  | 27.1 µM |  | 3.21 µM |  | 15.2 µM |  | 18.1 µM |  | 40.9 µM |  | 28.9 µM |  | 21.6 µM |  | 26.2 µM |  | 34.9 µM |  | 36.5 µM
Cc1ccc(C(=O)/C(=C/c2ccc([N+](=O)[O-])cc2)SCc2ccc(Cl)cc2)cc1 | 1.69 µM | 3.13 µM | 0.283 µM | > 100 µM | 0.317 µM | 1.36 µM | 2.35 µM | 7.29 µM | 0.676 µM | 2.86 µM | 2.58 µM | 12 µM | 0.24 µM | 0.696 µM | 2.38 µM | 7.03 µM | 1.55 µM | 3.4 µM | 2.06 µM | 4.49 µM
NC(=O)c1cccc2cn(-c3ccc([C@@H]4CCCNC4)cc3)nc12 | 12.4 µM | 25.9 µM | 5.54 µM | 97.7 µM | 10.8 µM | 25.1 µM | 15.7 µM | 34.6 µM | 12.9 µM | 32 µM | 4 µM | 18.7 µM | 22.5 µM | > 80.6 µM | 13.5 µM | 27.1 µM | 4.65 µM | 18.1 µM | 6.72 µM | 20.4 µM
CN1C(=O)C(C)(C)C2(SC(C)(C)C2(C)C)N(C)C1=S (centres undefined) |  | > 100 µM |  | > 100 µM |  | > 100 µM |  | > 100 µM |  | > 100 µM |  | > 100 µM |  | > 100 µM |  | > 100 µM |  | > 100 µM |  | > 100 µM
COc1cc(/C=N/NC(=O)c2ccc(C(F)(F)F)nc2Nc2ccc(Cl)cc2C)ccc1O | 3.06 µM | 13.7 µM | 0.416 µM | 3.12 µM | 2.95 µM | 12.7 µM | 1.7 µM | 4.41 µM | 4.45 µM | 16.2 µM | 2.65 µM | 11.7 µM | 2.11 µM | 6.1 µM | 3.2 µM | 14.3 µM | 1.16 µM | 3.23 µM | 2.12 µM | 7.66 µM
CC(C)=CC(=O)C1c2cccc(O)c2C(=O)c2c(O)cc(C)cc21 (centres undefined) |  | 4.77 µM |  | > 100 µM |  | 6.39 µM |  | 9.15 µM |  | 20.5 µM |  | 10.1 µM |  | 30.4 µM |  | 4.39 µM |  | 3.39 µM |  | 3.04 µM
COC(CN1C(=O)c2cccc3cccc(c23)C1=O)OC |  | > 100 µM |  | > 100 µM |  | > 100 µM |  | > 100 µM |  | > 100 µM |  | > 100 µM |  | > 100 µM |  | > 100 µM |  | > 100 µM |  | > 100 µM
O=C1C2C(C(=O)N1OS(=O)(=O)c1ccccc1)N(Cc1ccccc1)C(=O)N2Cc1ccccc1 (centres undefined) |  | > 100 µM |  | > 100 µM |  | > 100 µM |  | > 100 µM |  | > 100 µM |  | > 100 µM |  | > 100 µM |  | > 100 µM |  | > 100 µM |  | > 100 µM
CC12CCC(O)CC1CCC1C2CCC2(C)C(C3=CC(=O)OC3)CCC12O (centres undefined) |  | 10.3 µM |  | > 100 µM |  | 4.44 µM |  | 8.36 µM |  | 13.6 µM |  | 3.99 µM |  | > 30 µM |  | 3.55 µM |  | 10.8 µM |  | 3.2 µM
OCc1ccc(N2CCC2c2ccc(F)cc2)cc1Cl (centres undefined) | 30.8 µM | > 100 µM | 26 µM | > 82.9 µM | 0.481 µM | > 38.2 µM | 18.5 µM | 51.8 µM | 5.13 µM | 33 µM | 0.511 µM | 12.4 µM | 6.56 µM | 31.6 µM | 11.6 µM | 30.4 µM | 0.438 µM | 7.62 µM | 33.5 µM | > 71 µM
